Reference: US11202871B2, “Devices for evaporation and inhalation of active agents” (Emplicure AB, priority 2016, dated 2021)
Counter-ions that a name gives are not always drawn. Like-named read-outs stand apart in the source and are kept apart here.

Legend:
[1] = Oven heating of Al2O3 rods soaked in sumatriptan succinate solution; type: physicochemical
Description: Aluminium oxide ceramic rods were obtained from […] (Sweden): […] Oven […] 218 was obtained from Wilfa, (Norway).

[2] = Oven heating of calcium sulphate coins pre-loaded with sumatriptan succinate; type: physicochemical; conditions: pre-loaded calcium sulphate coins (0.07 g/g calcium sulphate); oven approx. 250° C.
[3] = Oven heating of aluminium oxide ceramic discs loaded with ibuprofen; amount remaining by UV; type: physicochemical; conditions: Al2O3 discs, oven 250° C. for 15 minutes
Method: Ceramic discs comprising ibuprofen (IOL Chemicals and Pharmaceuticals Ltd, India) were prepared using aluminium oxide (Al2O3; Keranova, Sweden) as follows.
(§3) Ceramic discs (Al2O3) with different pore sizes (0.25, 1, 6, 15 and 30 μm) were prepared in two sizes: (i) 63 mm in diameter and 6.3 mm in thickness (pore sizes 0.25, 1 and 6 μm); and (ii) 48 mm in diameter and 6.3 mm in thickness (pore sizes 15 and 30 μm). The porosity was approximately 40% vol and the density 3.75 g/cm^3 for all discs according to product specification.
The discs (pore sizes 0.25, 1, 6, 15 and 30 μm) were soaked in a 400 ml in phosphate buffer with pH 7.4 (one phosphate buffer saline tablet (Sigma-Aldrich, USA) dissolved in 200 ml deionized water) with a concentration of 408.5 μg/ml ibuprofen for 24 hours. The discs were dried in room temperature for 24 hours. […] All discs were measured for concentration of ibuprofen in 400 ml phosphate buffer pH 7.4 at 37° C. (USP paddle method (paddle speed 50 rpm), VanKel 7025, Varian Inc, USA) and the concentration for ibuprofen was measured using a UV spectrophotometer Shimadzu 1800, Japan at a wavelength of 220 nm to determine the amount of ibuprofen in the ceramic discs. The amount of ibuprofen in control discs was measured after 15 hours (i.e. after maximum drug release) and in heat treated discs after 1.5 hours (i.e. the maximal amount drug was at this time point released).

[4] = for amount of nicotine detected in the reference sample (not heated) / nicotine detected in coins after heating versus reference: pure nicotine (20 mg) dispensed; for amount of nicotine detected in the reference sample (not heated): dried 24 hours
[5] = calcium sulphate rods soaked 24 hours in pure nicotine; heated 5*10 sec.; max 315° C., 6 W
Description: Aluminium oxide ceramic rods and calcium sulphate rods were obtained as described in Example 3. Nicotine and nicotine solutions were supplied and applied, and nicotine levels were detected as described in Example 3.
Samples were heated using a prototype e-cigarette device (X-Cube II, Smoke) obtained from Devex Mekatronik AB (Sweden). The device is derived from the commercially available e-cigarette X-Cube.
The sample in the device was heated up by a coil that is wrapped around the sample.
The end of the device was connected to a vial via a silicon hose. The vial contained 1 ml of deionised water. To simulate smoking a rod was put into the device and puffing was performed. Puffing involves a sequence of 5 puffs that are each 10 seconds long. After puffing, the hose was removed and flushed with the water. The water was analysed for concentration of nicotine.

[6] = calcium sulphate coins, nicotine solution 50 μl, 18 mg/ml dispensed
Description: Calcium sulphate coins were obtained as described in Example 3. For the indirect induction test a magnet was molded into the coin. Nicotine and nicotine solutions were supplied and applied, and nicotine levels were detected as described in Example 3.
Metal plate for induction cooker was obtained from Haneström (Sweden). Induction cooker Wilfa ICP-2000 was obtained from Media Markt (Sweden). Magnets (10*1 mm, Samarium Cobalt magnets, 0.4 kg pull) were obtained from first4magnets (UK). IR-thermometer (MS6520A) was obtained from Mastech (USA).
Heat treatment by indirect induction was carried out by placing a metal plate onto the induction cooker. The ceramic coins containing a magnet was applied onto the metal plate and heated on maximum effect (exact temperature was not measured; see FIG. 10).

[7] = Liquid/Powder 0.4 (w/w)
Method: Calcium sulphate alpha hemihydrate (CaS) was obtained from Bo Ehrlander AB (Sweden). Shaped silicon rubbers were used as molds for coins (diameter: 12 mm, thickness: 2 mm). The calcium sulphate was mixed with a nicotine solution with a concentration of 5 or 20 mg/ml of nicotine (Liquid/Powder ratio of 0.4 (w/w)) to form a homogenous paste, which was filled in the rubber molds. Once the paste was applied, the molds were set to dry for at least 12 h under ambient conditions.
The temperature was set to approximately 200° C.
The sample was characterized by UV-spectrophotometer at a wavelength of 219 nm. The amount nicotine in the samples were then calculated.

[8] = Al2O3 discs, oven 188° C. for 15 minutes
Method: as §3
The discs were dried in room temperature for 24 hours. The discs were heated in an oven at 188° C. for 15 minutes, the control discs were not heated.

[9] = Description: (§1) Calcium sulphate alpha hemihydrate (CaS) was obtained from Bo Ehrlander AB (Sweden). Clonidine hydrochloride was obtained from PCAS (Finland). Shaped silicon rubbers were used as molds for coins (diameter: 12 mm, thickness: 2 mm). The calcium sulphate was mixed with powder of Clonidine hydrochloride (0.07 g Clonidine hydrochloride/g calcium sulphate) and deionised water (Liquid/Powder ratio of 0.4 (w/w)) to form a homogenous paste, which was used to fill the rubber molds. Once the paste had been applied, the molds were set to dry for at least 12 h under ambient conditions.
The oven temperature was set to approximately 250° C.
(§2) Each coin was weighed and immersed into a beaker containing 200 ml of deionised water. […] The sample was characterized by Shimadzu LC-2030 (Germany) HPLC system with a Genesis C18 analytical column 4 μm (100×2.1 mm i.d.) with a mobile phase of acetonitrile/phosphoric acid, pH 3 (11/89). The wavelength was set to 220 nm.
The reference samples represent the amount of clonidine hydrochloride mg/g calcium sulphate that was loaded before heat treatment.

[10] = calcium sulphate coins, solution 50 μl, 5 mg/ml dispensed; oven approx. 250° C., 0 to 15 minutes
Method: as §1, with “with” for “with powder of Clonidine hydrochloride (0.07 g Clonidine hydrochloride/g calcium sulphate) and”, “When” for “Once”, “was” for “had been”
Clonidine hydrochloride solution (50 μl, 5 mg/ml) was dispensed onto the calcium sulphate coins. When the solution was applied, the coins were set to dry for at least 12 h under ambient conditions.
The temperature was set to approximately 250° C.
as §2
The reference samples represent the amount of clonidine hydrochloride that was loaded before heat treatment.

[11] = calcium sulphate rods soaked in pure nicotine, oven approx. 200° C.

CNS(=O)(=O)Cc1ccc2[nH]cc(CCN(C)C)c2c1 [sumatriptan succinate]
amount of sumatriptan succinate the rods were able to absorb ([1]; Al2O3 rods soaked in 20 mg/ml solution for 24 hours): approximately 1 mg sumatriptan succinate/rod
time within which almost all of the sumatriptan succinate was released when heated ([1]; Al2O3 rods soaked in 20 mg/ml solution, oven approx. 300° C.): 5 to 15 min
time within which almost all of the sumatriptan succinate was released when heated [2]: ≤ 15 min

CC(C)Cc1ccc(C(C)C(=O)O)cc1 (stereo not drawn) [ibuprofen]
amount of ibuprofen remaining after heat treatment ([3]; pore sizes 0.25, 1, 6, 15 and 30 μm, all samples): zero
degradation of ibuprofen on heating (changes in absorbance at other wavelengths) [3]: no significant degradation

CN1CCCC1c1cccnc1 (stereo not drawn) [nicotine]
time within which almost all of the nicotine was released when heated ([4]; aluminium oxide rods soaked in 6 mg/ml nicotine solution (diluted e-juice) 24 hours, oven approx. 200° C.): 5 to 10 min
amount of nicotine the rods were able to absorb ([4]; aluminium oxide rods soaked in 6 mg/ml nicotine solution for 24 hours): approximately 135 μg nicotine/rod
amount of nicotine detected in the reference sample (not heated) ([4]; calcium sulphate coins): lower than 20 mg
nicotine detected in coins after heating versus reference ([4]; calcium sulphate coins, oven approx. 200° C.): a lower release of nicotine was detected after heating
amount of nicotine the rods were able to absorb ([4]; calcium sulphate rods soaked in pure nicotine for 24 hours): approximately 20 mg nicotine/rod
nicotine release during heating [4, 11]: Most of the nicotine was released during heating
nicotine release, 5 min versus 1 min of heating [4, 11]: a higher amount was released during 5 min of heating compared to 1 min of heating
amount of nicotine detected in the reference sample (not heated) ([4]; geopolymer coins): about 16 mg
nicotine detected in coins after heating versus reference ([4]; geopolymer coins, oven approx. 200° C.): a lower release of nicotine was detected after heating
nicotine release on heat treatment in e-cigarette device [5]: a heat treatment in the device will result in a nicotine release
nicotine release on induction heating, unheated plate ([6]; heated about 1 or about 5 minutes): Most of the nicotine was released within the first minute
nicotine release on induction heating, pre-heated plate ([6]; plate at least 150° C., heated 5 seconds): a substantial quantity of nicotine was released
amount of nicotine contained in the coins ([7]; calcium sulphate coins mixed with 5 mg/ml nicotine solution): approximately 180 μg
amount of nicotine contained in the coins ([7]; calcium sulphate coins mixed with 20 mg/ml nicotine solution): ~390 µg
amount of nicotine remaining after heat treatment compared to pre-heat treatment control ([8]; pore sizes 0.25, 6, 15 and 30 μm, all samples): very significantly reduced
degradation of nicotine on heating (changes in absorbance at other wavelengths) [8]: no significant degradation

Clc1cccc(Cl)c1N=C1NCCN1 [clonidine hydrochloride]
amount of clonidine hydrochloride contained in a coin ([9]; calcium sulphate coins, 0.07 g clonidine hydrochloride/g calcium sulphate, coin approx. 0.3 g): approximately 17 mg
time within which almost all of the clonidine hydrochloride was released when heated ([9]; pre-loaded calcium sulphate coins, oven approx. 250° C.): ≤ 15 min
amount of clonidine hydrochloride present in the coins during heating [10]: decreased significantly over time
